Assays:
Type in all cases: functional
[1] = species on record: Mus musculus; test: Observed biological activity converted into logit model against Ehrlich ascites carcinoma in mice
[2] = system: Mus musculus; test: In vivo antineoplastic activity against Ehrlich ascites carcinoma (EAC) cells in mice at 50 mg/kg body weight upon intraperitoneal administration; settings: ip
[3] = system: Mus musculus; test: In vivo antineoplastic activity against Ehrlich ascites carcinoma fluid in mice at 50 mg/kg body weight upon intraperitoneal administration; settings: ip
[4] = system: Mus musculus; test: In vivo antineoplastic activity against Ehrlich ascites carcinoma (EAC) cells in mice at 1 mg/kg body weight upon intraperitoneal administration; settings: ip
[5] = system: Mus musculus; test: In vivo antineoplastic activity against Ehrlich ascites carcinoma fluid in mice at 1 mg/kg body weight upon intraperitoneal administration; settings: ip

Row | SMILES | logit activity [1] | inhibition in vivo at 50 mg/kg [2] | inhibition in vivo at 50 mg/kg [3] | inhibition in vivo at 1 mg/kg [4] | inhibition in vivo at 1 mg/kg [5]
1 | O=C(NNc1ccccc1)C1CCC(=O)N1S(=O)(=O)c1ccc(Cl)cc1 (stereo unspecified) | 3.13 | 74.3% | 71.4% | – | –
2 | NNC(=O)C1CCC(=O)N1S(=O)(=O)c1ccc(Cl)c(Cl)c1 (stereo unspecified) | 1.03 | 59.3% | 58.3% | – | –
3 | Cc1ccc(S(=O)(=O)N2C(=O)CCC2C(=O)NNc2ccccc2)cc1 (stereo unspecified) | 1.89 | 77.6% | 64.3% | – | –
4 | O=C(NNc1ccccc1)C1CCC(=O)N1S(=O)(=O)c1ccccc1 (stereo unspecified) | 5.59 | 79% | 85.7% | – | –
5 | NNC(=O)C1CCC(=O)N1S(=O)(=O)c1ccc(Cl)cc1 (stereo unspecified) | 1.25 | 64.9% | 61.1% | – | –
6 | O=C(NNc1ccccc1)C1CCC(=O)N1S(=O)(=O)c1ccc(Cl)c(Cl)c1 (stereo unspecified) | 1.16 | 66.8% | 57.7% | – | –
7 | Cc1ccc(S(=O)(=O)N2C(=O)CCC2C(=O)NN)cc1 (stereo unspecified) | 0.61 | 50.1% | 52.8% | – | –
8 | NNC(=O)C1CCC(=O)N1S(=O)(=O)c1ccccc1 (stereo unspecified) | -0.549 | 40.3% | 44.4% | – | –
9 | CO[C@@]12[C@H](COC(N)=O)C3=C(C(=O)C(C)=C(N)C3=O)N1C[C@@H]1N[C@@H]12 [MITOMYCIN] | – | – | – | 100% | 100%

Reference: ChEMBL document CHEMBL1127768, “Possible antineoplastic agents : part 14 - synthesis, activity and QSAR studies of some 1-(substituted benzenesulphonyl)-5-oxopyrrolidine-2-carboxylic acid hydrazides” (1994)
